In ChEMBL document CHEMBL1146865, “Synthesis and antifungal activity of a novel series of alkyldimethylamine cyanoboranes and their derivatives” (J Med Chem, 2006):
In brackets after ≈: the same amount, converted by molar mass.

How the values were obtained:
[1] = tested on: Candida albicans; experiment: microbe, parasite or virus in culture; assay type: functional; settings: CBS 562
Description: Antifungal activity against Candida albicans CBS 562

[2] = tested on: Candida albicans; experiment: microbe, parasite or virus in culture; assay type: functional
Description: Antifungal activity against Candida albicans 607

[3] = tested on: Candida albicans; experiment: microbe, parasite or virus in culture; assay type: functional; remark: listed apart in the source
Description: Antifungal activity against Candida albicans 615

[4] = tested on: Aspergillus fumigatus; experiment: microbe, parasite or virus in culture; assay type: functional; settings: ATCC 64026
Description: Antifungal activity against Aspergillus fumigatus ATCC 64026

[5] = Toxicity in ICR mouse at 1 to 2 mg/ml, iv after 8 days; settings: in vivo
[6] = tested on: Pichia kudriavzevii; experiment: microbe, parasite or virus in culture; assay type: functional
Description: Antifungal activity against Candida krusei 603

[7] = tested on: Nakaseomyces glabratus; experiment: microbe, parasite or virus in culture; assay type: functional
Description: Antifungal activity against Candida glabrata 578

[8] = tested on: Nakaseomyces glabratus; experiment: microbe, parasite or virus in culture; assay type: functional; remark: listed apart in the source
Description: Antifungal activity against Candida glabrata 648

[9] = tested on: Nakaseomyces glabratus; experiment: microbe, parasite or virus in culture; assay type: functional; remark: listed apart in the source
Description: Antifungal activity against Candida glabrata 566

[10] = tested on: Pichia kudriavzevii; experiment: microbe, parasite or virus in culture; assay type: functional; remark: listed apart in the source
Description: Antifungal activity against Candida krusei 638

[11] = tested on: Nakaseomyces glabratus; experiment: microbe, parasite or virus in culture; assay type: functional; remark: listed apart in the source
Description: Antifungal activity against Candida glabrata 646

[12] = tested on: Nakaseomyces glabratus; experiment: microbe, parasite or virus in culture; assay type: functional; remark: listed apart in the source
Description: Antifungal activity against Candida glabrata 572

CN(C)CCCCCCCCCCN(C)C.N#CBBr.N#CBBr
MIC [1]: 140 µM
MIC [2]: 140 µM
MIC [3]: 140 µM

BC#N.CN(C)C
MIC [4]: > 5100 µM
MIC [1]: 5100 µM
MIC [2]: > 5100 µM
MIC [3]: > 5100 µM

CCCCCCCCCCCN(C)C.N#CB(Br)Br
MTD at 192 h [5]: 73.1 µmol/kg
MIC [6]: 10.1 µM
MIC [7]: 40.4 µM
MIC [8]: 20.2 µM
MIC [4]: 79 µM
MIC [9]: 20.2 µM
MIC [10]: 10.1 µM
MIC [11]: 20.2 µM
MIC [1]: 39 µM
MIC [12]: 40.4 µM
MIC [2]: 39 µM
MIC [3]: 39 µM

CN(C)CCCCCCCCCCN(C)C.N#CB(Br)Br.N#CB(Br)Br
MIC [1]: 104 µM
MIC [2]: 104 µM
MIC [3]: 104 µM

BC(=O)O.BC(=O)O.CN(C)CCCCCCCCCCN(C)C
MIC [1]: 188 µM
MIC [2]: 188 µM
MIC [3]: 907 µM

CCCCCCCCCCCN(C)C.N#CBF
MIC [4]: 129 µM
MIC [1]: 64 µM
MIC [2]: 64 µM
MIC [3]: 64 µM

CCCCCCCCCCCN(C)C.N#CBBr
MIC [4]: 131 µM
MIC [1]: 49 µM
MIC [2]: 49 µM
MIC [3]: 49 µM

C[C@@H]1[C@H](O)[C@@H](C)/C=C/C=C/C=C/C=C/C=C/C=C/C=C/[C@H](O[C@@H]2O[C@H](C)[C@@H](O)[C@H](N)[C@@H]2O)C[C@@H]2O[C@](O)(C[C@@H](O)C[C@@H](O)[C@H](O)CC[C@@H](O)C[C@@H](O)CC(=O)O[C@H]1C)C[C@H](O)[C@H]2C(=O)O [AMPHOTERICIN B]
MTD at 192 h [5]: 2.6 µmol/kg
MIC [6]: 4.32 µM (≈ 3.99 µg/mL)
MIC [7]: 2.14 µM (≈ 1.98 µg/mL)
MIC [8]: 0.82 µM (≈ 0.758 µg/mL)
MIC [4]: 0.5 µM (≈ 0.462 µg/mL)
MIC [9]: 0.13 µM (≈ 0.12 µg/mL)
MIC [10]: 4.32 µM (≈ 3.99 µg/mL)
MIC [11]: 0.41 µM (≈ 0.379 µg/mL)
MIC [1]: 0.54 µM (≈ 0.499 µg/mL)
MIC [12]: 1.07 µM (≈ 0.989 µg/mL)
MIC [2]: 0.27 µM (≈ 0.25 µg/mL)
MIC [3]: 0.27 µM (≈ 0.25 µg/mL)

CN(C)C.N#CB(Br)Br [DIBROMOBORANECARBONITRILE; TRIMETHYLAMINE]
MIC [1]: 1970 µM
MIC [2]: > 1970 µM
MIC [3]: > 1970 µM

BC#N.CCCCCCCCCCCCN(C)C [DODECYLDIMETHYLAMINE CYANOBORANE]
MIC [1]: 61 µM
MIC [2]: 61 µM
MIC [3]: 61 µM

OC(Cn1cncn1)(Cn1cncn1)c1ccc(F)cc1F [FLUCONAZOLE]
MIC [6]: 104 µM (≈ 32 µg/mL)
MIC [7]: > 836 µM
MIC [4]: > 208 µM
MIC [10]: 104 µM (≈ 32 µg/mL)
MIC [11]: 52.2 µM (≈ 16 µg/mL)
MIC [1]: 1.6 µM (≈ 0.49 µg/mL)
MIC [12]: > 836 µM
MIC [2]: 1.6 µM (≈ 0.49 µg/mL)
MIC [3]: 1.6 µM (≈ 0.49 µg/mL)
